Tested on: D2/3R
Test: Kinetic analysis of PET data (1TCM, 2TCM, Logan, SRTM);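 as to 2TCM BPND change relative to control: Raclopride 1 mg/kg intravenous pretreatment versus saline controls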;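 as to SRTM BPND change relative to control: Raclopride 1 mg/kg intravenous pretreatment versus saline controls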
Format: in vivo, Sprague-Dawley rats
Set-up: key to SRTM BPND / 1TCM BPND / 2TCM BPND (VT-based): BPND = VT(target)/VT(cerebellum) − 1 (or SRTM, cerebellum reference); SRTM BPND change relative to control / 1TCM BPND change relative to control / 2TCM BPND change relative to control / Logan BPND change relative to control: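 Raclopride 1 mg/kg intravenous pretreatment versus saline controls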; 1TCM VT / 2TCM VT: unit not given here
Protocol: Kinetic analysis is described using the nomenclature proposed by Innis et al.. ROI TACs of [^18F]FEt-AMC13 were analyzed with one-tissue and two-tissue compartmental models of reversible binding (1TCM and 2TCM, respectively) to obtain individual rate constants. From these, the regional distribution volumes (VT) were calculated and compared to those obtained with Logan graphical analysis. Binding potentials (BPND) were calculated from the distribution ratios as VT (target) / VT (cerebellum) – 1, or estimated with the simplified reference tissue model (SRTM) using the cerebellum as reference region.
Metabolite-corrected plasma-derived arterial input function and whole blood time-activity curve were used for Logan, 1TCM, and 2TCM analyses. Fractional cerebral blood volume was set to 3.6 % [27]. For one rat in the raclopride-treated group, no input curves could be obtained; therefore, its PET data were only analyzed with SRTM.
Degree of D2/3R-specific binding of the tracers was characterized by BPND (as given above) or the specific binding ratio (SBR) given as target region activity/cerebellar activity - 1. Both were calculated under control conditions and in response to the raclopride challenge.

[1] = Pituitary, raclopride, listed as [18F]FEt-AMC13
[2] = Striatum, raclopride, listed as [18F]FEt-AMC13
[3] = Thalamus, raclopride, listed as [18F]FEt-AMC13

Oc1ccc2c(c1)O[C@@H](CNCc1ccc(OCC[18F])cc1)CC2 [[^18F]FEt-AMC13]
SRTM BPND (Pituitary, raclopride): 0.55 ± 0.53 | SRTM BPND change relative to control (Pituitary, raclopride): −22% | 2TCM BPND change relative to control [1]: -23% | SRTM BPND [1]: 0.55±0.53 | SRTM BPND change relative to control [1]: –22% | 1TCM BPND (Striatum, control): 0.63 ± 0.08 | 1TCM VT (Striatum, control): 7.60±0.64 | 2TCM BPND (VT-based) (Striatum, control): 0.56 ± 0.05 | 2TCM VT (Striatum, control): 7.90±0.84 | Logan BPND (Striatum, control): 0.52 ± 0.01 | Logan VT (Striatum, control): 7.72±0.84 | SRTM BPND (Striatum, control): 0.51 ± 0.02 | 1TCM K1 (Striatum, control rat A): 0.45 ± 0.03 mL/g/min | 1TCM k2 (Striatum, control rat A): 0.05 ± 0.01 min⁻¹ | 2TCM K1 (Striatum, control rat A): 1.77 ± 0.62 mL/g/min | 2TCM k2 (Striatum, control rat A): 4.95 ± 3.00 min⁻¹ | 2TCM k3 (Striatum, control rat A): 1.34 ± 0.29 min⁻¹ | 2TCM k4 (Striatum, control rat A): 0.05 ± 0.01 min⁻¹ | 1TCM K1 (Striatum, control rat B): 0.49 ± 0.02 mL/g/min | 1TCM k2 (Striatum, control rat B): 0.06 ± 0.01 min⁻¹ | 2TCM K1 (Striatum, control rat B): 0.63 ± 0.14 mL/g/min | 2TCM k2 (Striatum, control rat B): 0.48 ± 0.68 min⁻¹ | 2TCM k3 (Striatum, control rat B): 0.81 ± 1.13 min⁻¹ | 2TCM k4 (Striatum, control rat B): 0.17 ± 0.07 min⁻¹ | 1TCM K1 (Striatum, control rat C): 0.47 ± 0.02 mL/g/min | 1TCM k2 (Striatum, control rat C): 0.07 ± 0.004 min⁻¹ | 2TCM K1 (Striatum, control rat C): 0.98 ± 0.85 mL/g/min | 2TCM k2 (Striatum, control rat C): 3.47 ± 8.55 min⁻¹ | 2TCM k3 (Striatum, control rat C): 2.81 ± 3.01 min⁻¹ | 2TCM k4 (Striatum, control rat C): 0.11 ± 0.08 min⁻¹ | 1TCM K1 (Striatum, control rat D): 0.51 ± 0.02 mL/g/min | 1TCM k2 (Striatum, control rat D): 0.07 ± 0.01 min⁻¹ | 2TCM K1 (Striatum, control rat D): 8.06 ± 30.34 mL/g/min | 2TCM k2 (Striatum, control rat D): 58.0 ± 203.8 min⁻¹ | 2TCM k3 (Striatum, control rat D): 3.54 ± 188.40 min⁻¹ | 2TCM k4 (Striatum, control rat D): 0.07 ± 263.98 min⁻¹ | 1TCM BPND (Striatum, raclopride): 0.51±0.06 | 1TCM BPND change relative to control (Striatum, raclopride): -18% | 1TCM VT (Striatum, raclopride): 6.69±0.41 | 2TCM BPND (VT-based) (Striatum, raclopride): 0.41 ± 0.05 | 2TCM BPND change relative to control (Striatum, raclopride): −27% | 2TCM VT (Striatum, raclopride): 6.97±0.39 | Logan BPND (Striatum, raclopride): 0.40±0.04 | Logan BPND change relative to control (Striatum, raclopride): -24% | Logan VT (Striatum, raclopride): 6.97±0.32 | SRTM BPND (Striatum, raclopride): 0.38 ± 0.05 | SRTM BPND change relative to control (Striatum, raclopride): −26% | 2TCM BPND (VT-based) [2]: 0.41±0.05 | 2TCM BPND change relative to control [2]: -27% | SRTM BPND [2]: 0.38±0.05 | SRTM BPND change relative to control [2]: –26% | 1TCM BPND (Thalamus, control): 0.38±0.06 | 1TCM VT (Thalamus, control): 6.45±0.62 | 2TCM BPND (VT-based) (Thalamus, control): 0.33 ± 0.02 | 2TCM VT (Thalamus, control): 6.75±0.62 | Logan BPND (Thalamus, control): 0.31±0.02 | Logan VT (Thalamus, control): 6.64±0.61 | SRTM BPND (Thalamus, control): 0.28 ± 0.06 | 1TCM K1 (Thalamus, control rat A): 0.44 ± 0.02 mL/g/min | 1TCM k2 (Thalamus, control rat A): 0.06 ± 0.01 min⁻¹ | 2TCM K1 (Thalamus, control rat A): 14.0 ± 117.5 mL/g/min | 2TCM k2 (Thalamus, control rat A): 104 ± 848 min⁻¹ | 2TCM k3 (Thalamus, control rat A): 3.05 ± 820.48 min⁻¹ | 2TCM k4 (Thalamus, control rat A): 0.05 ± 961.03 min⁻¹ | 1TCM K1 (Thalamus, control rat B): 0.65 ± 0.03 mL/g/min | 1TCM k2 (Thalamus, control rat B): 0.10 ± 0.01 min⁻¹ | 2TCM K1 (Thalamus, control rat B): 0.88 ± 0.12 mL/g/min | 2TCM k2 (Thalamus, control rat B): 0.58 ± 0.58 min⁻¹ | 2TCM k3 (Thalamus, control rat B): 0.67 ± 1.63 min⁻¹ | 2TCM k4 (Thalamus, control rat B): 0.19 ± 1.99 min⁻¹ | 1TCM K1 (Thalamus, control rat C): 0.55 ± 0.02 mL/g/min | 1TCM k2 (Thalamus, control rat C): 0.09 ± 0.01 min⁻¹ | 2TCM K1 (Thalamus, control rat C): 0.71 ± 0.13 mL/g/min | 2TCM k2 (Thalamus, control rat C): 0.48 ± 0.97 min⁻¹ | 2TCM k3 (Thalamus, control rat C): 0.76 ± 3.17 min⁻¹ | 2TCM k4 (Thalamus, control rat C): 0.23 ± 3.61 min⁻¹ | 1TCM K1 (Thalamus, control rat D): 0.64 ± 0.03 mL/g/min | 1TCM k2 (Thalamus, control rat D): 0.11 ± 0.01 min⁻¹ | 2TCM K1 (Thalamus, control rat D): 3.13 ± 3.18 mL/g/min | 2TCM k2 (Thalamus, control rat D): 12.3 ± 18.9 min⁻¹ | 2TCM k3 (Thalamus, control rat D): 2.61 ± 0.96 min⁻¹ | 2TCM k4 (Thalamus, control rat D): 0.11 ± 0.02 min⁻¹ | 1TCM BPND (Thalamus, raclopride): 0.33±0.04 | 1TCM BPND change relative to control (Thalamus, raclopride): -12% | 1TCM VT (Thalamus, raclopride): 5.93±0.71 | 2TCM BPND (VT-based) (Thalamus, raclopride): 0.30 ± 0.01 | 2TCM BPND change relative to control (Thalamus, raclopride): −10% | 2TCM VT (Thalamus, raclopride): 6.44±0.60 | Logan BPND (Thalamus, raclopride): 0.28±0.005 | Logan BPND change relative to control (Thalamus, raclopride): -10% | Logan VT (Thalamus, raclopride): 6.40±0.40 | SRTM BPND (Thalamus, raclopride): 0.26 ± 0.02 | SRTM BPND change relative to control (Thalamus, raclopride): −7% | 2TCM BPND (VT-based) [3]: 0.30±0.01 | 2TCM BPND change relative to control [3]: -10% | SRTM BPND [3]: 0.26±0.02 | SRTM BPND change relative to control [3]: –7% | part of cerebellar VT potentially displaceable (D2/3R specific binding) (modified Lassen plot): 11–26% | part of striatal VT potentially displaceable (D2/3R specific binding) (modified Lassen plot): 41–55% | Striatal BPND relative to cerebellum (range depending on the estimation method): 0.51–0.63

Source: article PMC4512978, “Synthesis and evaluation in rats of homologous series of [^18F]-labeled dopamine D2/3 receptor agonists based on the 2-aminomethylchroman scaffold as potential PET tracers” (EJNMMI Research, 2015)
